Data: US10774084B2, “Adenine derivatives and their use as UV-photoprotective agents” (UNIVERZITA PALACKEHO V OLOMOUCI, priority 2015, dated 2020)

How the values were obtained:
[1] = system: Caenorhabditis elegans strain fem-1/HT17; assay: Lifespan of Caenorhabditis elegans; type: in vivo; conditions: for average lifespan / median lifespan: 25° C.; for effect on lifespan of worms (in words): Log-Rank test, Bonferroni correction
From the text: Caenorhabditis elegans is a model organism used for identification of compounds with possible beneficial effect on human aging and age-related diseases. The list of compounds that prolong the lifespan of C. elegans and are known to have beneficial effect on human health includes resveratrol, curcumin and many others. Some substances that prolong the lifespan of worms are also used in skin rejuvenating and anti-aging cosmetics, for example vitamin E, coenzyme Q10, green tea or pomegranade extracts and cytokinin kinetin. The Caenorhabditis elegans strain used in this experiment was fem-1/HT17. This strain has a heat-inducible mutation which causes all worms to develop into females when cultivated in 25° C. (13). That prevents further reproduction and contamination of the experiment with progeny. Compounds dissolved in DMSO (100 mM stock solutions) were added into fresh NGM (nematode growth medium) to the final concentration of 10 and 50 or 100 μM and pipetted onto a Petri dish. Medium with DMSO vehiculum alone and non-treated medium were used as negative control. After solidification of NGM, the plates were seeded with 100 μl of 20× concentrated overnight suspension of Escherichia coli strain OP50 in LB medium. Bacteria on plates were allowed to grow overnight in 37° C. Age synchronized young adults (obtained by hypochlorite treatment) were then pipetted onto plates. Plates were kept in 25° C. In regular time intervals (1-3 days), the plates were scanned on an Epson perfection V700 photo flatbed scanner. The number of surviving worms was established by image analysis based on comparison of several subsequent photographs and identification of moving objects. Pictures were analyzed in Fiji similarly as described here. Scripts from the original publication were slightly modified and the parameters adjusted to better suit our photo resolution and lighting. Three subsequent pictures of a plate were compared with each other. The average of the 3 resulting numbers was used to reduce the possibility of error. The overall results were then analyzed in programs OASIS and ED50v10. The statistical significance was evaluated by Log-Rank test and P-values were corrected by Bonferroni correction.

[2] = system: Normal human dermal fibroblasts (NHDF); assay: In vitro UVA/UVB photoprotection test on NHDF (Example 9); type: cell-based
From the text: Normal human dermal fibroblasts (NHDF) were used as an in vitro model. Cells were isolated from tissue specimens obtained from healthy patients undergoing plastic surgery at the Department of Plastic and Aesthetic Surgery (University Hospital Olomouc). The use of skin tissue was in accordance with the Ethics Committee of the University Hospital and Faculty of Medicine and Dentistry, Palacky University, Olomouc and all patients signed written informed consent. Fibroblasts were used between the 2nd and 4th passage. For all experiments the fibroblasts were seeded onto 96-well plates at a density of 0.8×10^5 cells/ml (0.2 ml per well) of cultivation medium (DMEM supplemented with fetal calf serum (10%, v/v), penicillin ([…]) and streptomycin (100 U/ml)). Test substances included compounds number 1, 3, 9, 15 and 20. Compounds were dissolved in DMSO and then diluted in serum free medium (DMEM supplemented with penicillin ([…]) and streptomycin (100 U/ml)). After 24 h incubation was cultivation medium changed to serum free medium containing test compound or DMSO (negative control). The final applied concentrations range was 3.9-31.3 μmol/ll. As a control serum free medium supplemented with appropriate concentration of DMSO (0.5%, v/v) was used. Rosmarinic acid was used as positive control. Each test compound was in parallel applied on two 96-well plates with NHDF. After 60 minutes incubation medium with test compound was discarded, cells were washed two-times with PBS and PBS supplemented with glucose (1 mg/ml) was applied. To study UVA photoprotection, a plate was exposed to a cytotoxic dose of UVA radiation (7.5 J/cm^2) using a solar simulator SOL 500 (Dr. Hoenle Technology, Germany) equipped with a H1 filter transmitting wavelengths of 320-400 nm. To study UVB photoprotection, a plate was exposed to a cytotoxic dose of UVB radiation (150 mJ/cm^2) using the solar simulator equipped with a H2 filter transmitting wavelengths of 295-320 nm. Intensity of UVA or UVB radiation was evaluated before each irradiation by UVA- or UVB-meter. Control (non-irradiated) plates were for the period of irradiation incubated in dark. After UVA or UVB exposure PBS with glucose was discarded and serum free medium was applied. After 24 hours (37° C., 5% CO2) cell damage was evaluated by neutral red (NR) incorporation into viable cells. Medium was discarded and NR solution (0.03% w/v, PBS) was applied. After 60 minutes NR solution was discarded, cells were fixed with a mixture of formaldehyde (0.5%, v/v) and CaCl2 (1%, m/v) in ratio 1:1 and then NR was dissolved in methanol (50%, v/v) with acetic acid (1%, v/v). After 5 minutes of intensive shaking absorbance was measured at 540 nm. Experiments were performed in four independent repetitions with use of cells from four donors to minimize individual sensitivity of donor cells. Photoprotective effect was evaluated by comparison of experimental data (absorbance) of test compounds with a positive control and a negative control (according to the following equation:
[formula] • As . . . absorbance of sample (cells pre-incubated with test compounds in serum free medium and irradiated) • Anc . . . absorbance of negative control (cells pre-incubated with s DMSO in serum free medium and non-irradiated=incubated in dark) • Apc . . . absorbance of positive control (cells pre-incubated with s DMSO in serum free medium and irradiated)

Structure (SMILES)	average lifespan ([1]; 10 μM in NGM)	median lifespan ([1]; 10 μM in NGM)	average lifespan ([1]; 100 μM in NGM)	median lifespan ([1]; 100 μM in NGM)	effect on lifespan of worms (in words) [1]	Protection (%) ([2]; UVA 7.5 J/cm^2, 3.9 μmol/l)	Protection (%) ([2]; UVA 7.5 J/cm^2, 7.8 μmol/l)	Protection (%) ([2]; UVA 7.5 J/cm^2, 15.6 μmol/l)	Protection (%) ([2]; UVA 7.5 J/cm^2, 31.3 μmol/l)	Protection (%) ([2]; UVB 150 mJ/cm^2, 3.9 μmol/l)	Protection (%) ([2]; UVB 150 mJ/cm^2, 7.8 μmol/l)	Protection (%) ([2]; UVB 150 mJ/cm^2, 15.6 μmol/l)	Protection (%) ([2]; UVB 150 mJ/cm^2, 31.3 μmol/l)
c1nc(NCC2CCCO2)c2ncn(C3CCCO3)c2n1 (stereo not shown) [Compound 1, 6-(tetrahydrofuran-2-ylmethylamino)-9-(tetrahydrofuran-2-yl)purine]	11.9 days	10.3 days	12.6 days	10.2 days	significantly prolonged	–	–	–	–	–	–	–	–
OCc1ccc(CNc2ncnc3c2ncn3C2CCCO2)o1 (stereo not shown) [Compound 3, 6-(5-hydroxymethylfuran-2-ylmethylamino)-9-(tetrahydrofuran-2-yl)purine]	–	–	–	–	–	14.7%	16.3%	24.6%	25.8%	43.6%	53.1%	47.4%	48.4%
c1csc(CNc2ncnc3c2ncn3C2CCCO2)c1 (stereo not shown) [Compound 9, 6-(thiophen-2-ylmethylamino)-9-(tetrahydrofuran-2-yl)purine]	–	–	–	–	–	41.3%	44.4%	45.7%	52.0%	34.9%	62.6%	64.4%	68.7%
Clc1nc(NCc2ccco2)c2ncn(C3CCCO3)c2n1 (stereo not shown) [Compound 15, 2-chloro-6-furfurylamino-9-(tetrahydrofuran-2-yl)purine]	11.3 days	9.4 days	13.8 days	10.3 days	–	24.5%	29.9%	33.0%	35.3%	39.9%	55.2%	53%	60.2%
Clc1nc(NCC2CCCO2)c2ncn(C3CCCO3)c2n1 (stereo not shown) [Compound 20, 2-chloro-6-(tetrahydrofuran-2-ylmethylamino)-9-(tetrahydrofuran-2-yl)purine]	12.4 days	11.2 days	11.2 days	10.2 days	significantly prolonged	5.9%	10.7%	11.5%	16.2%	39.8%	58.3%	58.2%	60%
